In US7135279B2 (priority 1992, dated 2006):

Columns and labels:
[1] = control of morning sickness during pregnancy; cited from earlier work
[2] = target: T1, L-[Aba^67.95 (CO-S)^51–52]2 HIV-1 PR (Human immunodeficiency virus type 1 group M subtype B, UniProt P03369, C557A/C585A); assay: Fluorogenic assay of inhibitors against the L-ligation analog; assay type: biochemical; settings: corresponding chiral substrate, 5×1C50 concentration of inhibitor
T1 construct: to form the ligated 99-residue D- and L-[(NHCH2COSCH2 CO)^51-52]; HIV-1 PR products; made in house; host or cells: total chemical synthesis: solid-phase segments 1-51 and 53-99 joined by chemical ligation
Protocol: (§1) The D- and L-enzymes were separately assayed by the fluorogenic assay method using the corresponding chiral substrate, in the presence of 5×1C50 concentration of inhibitor. The fluorogenic assays were performed with 15 ul aliquots (corresponding to […] protein) of each enzyme enantiomer in 100 millimolar MES buffer pH 6.5 added to a solution of […] D- or L-fluorogenic substrate in the MES buffer. The substrate sequence was 2-aminobenzoyl-Thr-Ile-Nle-Phe(p-NO2)-Gln-Arg amide (SEQ ID NO 2): it was synthesized with either D- or L-amino acid derivatives to provide the appropriate enantiomeric forms. The inhibitor Evans Blue is a non-peptide, achiral mixed competitive-uncompetitive inhibitor of the HIV-1 PR enzyme.

[3] = system: D-[Aba^67.95 (CO-S)^51–52]2 HIV-1 PR; assay: Fluorogenic assay of inhibitors against the D-ligation analog; assay type: biochemical; settings: corresponding chiral substrate, 5×1C50 concentration of inhibitor
Protocol: as §1

Row | Compound | sedative effect [1] | inhibition of L-[Aba^67.95 (CO-S)^51–52]2 HIV-1 PR [2] | inhibition of D-[Aba^67.95 (CO-S)^51–52]2 HIV-1 PR [3]
1 | O=C1CC[C@@H](N2C(=O)c3ccccc3C2=O)C(=O)N1 (single isomer, unassigned) [D-enantiomer of thalidomide] | safe and effective sedative |  | 
2 | Ac-Thr-Ile-Nle-psi[CH2NH]-Nle-Gln-Arg.amide [D-MVT101] |  | no effect | inhibits
3 | Ac-Thr-Ile-Nle-psi[CH2NH]-Nle-Gln-Arg.amide [L-MVT101] |  | inhibits | no effect
